How the values were obtained:
PD-1/PD-L1 = PD-1/PD-L1 (Homo sapiens (Human), UniProt Q9NZQ7); experiment: PD-1/PD-L1 Binding Assay (Alphascreen)
In short: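 PD-1/PD-L1 binding detected by anti-6×His acceptor and streptavidin donor beads after 120 min in the dark at 25 °C. Beforehand, the two proteins were incubated 15 min at 25 °C with inhibitor at 0.015–300 nM (1% DMSO). IC50 comes from a log concentration–response curve.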

[1] = Pharmacokinetic Assay, single oral dose 100 mg/kg (Table 11); type: in vivo; settings: mouse, C57 female mice, oral (intragastric), plasma
Method: Adult C57 female mice were received to single-dose of the test compounds with […], 10% Kolliphor^@HS 15 and 80% saline as excipients, the mice (n=9) were giving oral administration (intragastric administration) with the compounds at a dose of 100 mg/kg. Time of blood collection: 15 min, 30 min, 1 h, 2 h, 4 h, 7 h, 24 h. Approximately 0.1 mL of whole blood was collected from retro-orbital venous plexus of 3 mice at each time point, and placed into tubes that contained K2-EDTA as an anticoagulant. The whole blood was centrifuged at 4° C. and 4000 rpm for 10 min. The plasma was transferred into centrifuge tubes, and stored at −20° C. until being analyzed. Concentrations of test compounds in the plasma samples were analyzed with liquid chromatography-tandem mass spectrometry (LC-MS/MS). Plasma concentration-time data of individual animals was analyzed using Microsoft Excel 2010. Non-compartmental model was introduced in concentration analysis. The pharmacokinetic parameters of the test compounds were calculated using WinNonlin (version 4.1; Pharsight) software.

[2] = Pharmacokinetic Assay, single oral dose 5 mg/kg (Table 12); type: in vivo; settings: mouse, plasma concentration, C57 female mice, single oral dose 5 mg/kg
In short: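 Adult female C57 mice (n=3) got one intragastric dose of 5 mg/kg in 15% DMSO, 10% Kolliphor HS 15, 75% saline. Retro-orbital blood was taken at 30 min, 2 h and 4 h into K2-EDTA. Plasma levels were measured by LC-MS/MS.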

Chain of PD-1/PD-L1 (Q9NZQ7 19-238): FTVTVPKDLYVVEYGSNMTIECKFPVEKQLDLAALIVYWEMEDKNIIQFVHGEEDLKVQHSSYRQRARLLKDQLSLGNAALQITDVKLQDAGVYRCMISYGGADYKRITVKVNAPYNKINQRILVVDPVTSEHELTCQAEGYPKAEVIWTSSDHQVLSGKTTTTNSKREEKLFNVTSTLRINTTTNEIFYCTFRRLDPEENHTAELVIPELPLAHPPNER

IC50 (PD-1/PD-L1; numeric values) [nM]	AUC [1] [ng·h/mL]	Cmax [1] [ng/mL]	Tmax [1] [h]	half-life [1] [h]	concentration at 0.5 h [2] [ng/mL]	concentration at 2 h [2] [ng/mL]	concentration at 4 h [2] [ng/mL]	IC50 (PD-1/PD-L1; range symbols) [nM]	SMILES
1.2	42700	3720	1	4.67	–	–	–	–	Cc1c(-c2nc3cc(CNC[C@H]4CCCO4)c(OC(F)F)cc3o2)cccc1-c1cccc(-c2nc3cc(CN4CCC[C@H]4C(=O)O)c(OC(F)F)cc3o2)c1C [Example 29, ((6-(difluoromethoxy)-2-(3′-(6-(difluoromethoxy)-5-(((((R)-tetrahydrofuran-2-yl)methyl)amino)methyl)benzo[d]oxazol-2-yl)-2,2′-dimethyl-[1,1′-biphenyl]-3-yl)benzo[d]oxazol-5-yl)methyl)-L-proline]
2.6	46500	4280	4	9.69	–	–	–	–	Cc1c(-c2nc3cc(CN4CCC[C@H]4C(=O)O)c(OC(F)F)cc3o2)cccc1-c1cccc(-c2nc3cc(CN4CCCC4(C)C)c(OC(F)F)cc3o2)c1C [Example 62, ((6-(difluoromethoxy)-2-(3′-(6-(difluoromethoxy)-5-((2,2-dimethylpyrrolidin-1-yl)methyl)benzo[d]oxazol-2-yl)-2,2′-dimethyl-[1,1′-biphenyl]-3-yl)benzo[d]oxazol-5-yl)methyl)-L-proline]
0.2	8570	1280	1	3.57	–	–	–	–	Cc1c(-c2nc3c(o2)CCNC3)cccc1-c1cccc(-c2nc3cc(CN4CCC[C@H]4C(=O)O)c(OC(F)F)cc3o2)c1C [Example 190, ((6-(difluoromethoxy)-2-(2,2′-dimethyl-3′-(4,5,6,7-tetrahydrooxazolo[4,5-c]pyridin-2-yl)-[1,1′-biphenyl]-3-yl)benzo[d]oxazol-5-yl)methyl)-L-proline]
1.5	8920	727	4	11	–	–	–	–	Cc1c(-c2nc3cc(CN4CC(N(C)C)C4)c(OC(F)F)cc3o2)cccc1-c1cccc(-c2nc3cc(CN4CCC[C@H]4C(=O)O)c(OC(F)F)cc3o2)c1C [Example 33, ((6-(difluoromethoxy)-2-(3′-(6-(difluoromethoxy)-5-((3-(dimethylamino)azetidin-1-yl)methyl)benzo[d]oxazol-2-yl)-2,2′-dimethyl-[1,1′-biphenyl]-3-yl)benzo[d]oxazol-5-yl)methyl)-L-proline]
2.5	67400	4890	1	6.93	–	–	–	–	Cc1c(-c2ccc(CN3CCCC3)c(F)c2)cccc1-c1cccc(-c2nc3cc(CN4CCC[C@H]4C(=O)O)c(OC(F)F)cc3o2)c1C [Example 243, ((6-(difluoromethoxy)-2-(3″-fluoro-2,2′-dimethyl-4″-(pyrrolidin-1-ylmethyl)-[1,1′:3′,1″-terphenyl]-3-yl)benzo[d]oxazol-5-yl)methyl)-L-proline]
0.5	5710	931	1	9.83	–	–	–	–	CNCc1cc2nc(-c3cccc(-c4cccc(-c5nc6cc(CN7CCC[C@H]7C(=O)O)c(OC(F)F)cc6o5)c4C)c3C)oc2cc1OC(F)F [Example 15, ((6-(difluoromethoxy)-2-(3′-(6-(difluoromethoxy)-5-((methylamino)methyl)benzo[d]oxazol-2-yl)-2,2′-dimethyl-[1,1′-biphenyl]-3-yl)benzo[d]oxazol-5-yl)methyl)-L-proline]
5.7	–	–	–	–	33.6	171	113	–	Cc1c(-c2nc3cc(CN4CCC[C@H]4C(=O)O)c(OC(F)F)cc3o2)cccc1-c1cccc(-c2ccc(CN3CCCC3)s2)c1C [Example 280, ((6-(difluoromethoxy)-2-(2,2′-dimethyl-3′-(5-(pyrrolidin-1-ylmethyl)thiophen-2-yl)-[1,1′-biphenyl]-3-yl)benzo[d]oxazol-5-yl)methyl)-L-proline]
–	–	–	–	–	21.3	124	109	0.1 to 5	Cc1c(-c2nc3cc(CN4CCC[C@H]4C(=O)O)c(OC(F)F)cc3o2)cccc1-c1cccc(-c2nc3cc(CN4CC5CC4C5)cc(C(F)(F)F)c3o2)c1C [Example 89]
–	–	–	–	–	428	792	527	> 50	Cc1c(-c2nc3c(o2)CCN(CC(F)F)C3)cccc1-c1cccc(-c2nc3cc(CN4CCC[C@H]4C(=O)O)c(OC(F)F)cc3o2)c1C [Example 201, ((2-(3′-(5-(2,2-difluoroethyl)-4,5,6,7-tetrahydrooxazolo[4,5-c]pyridin-2-yl)-2,2′-dimethyl-[1,1′-biphenyl]-3-yl)-6-(difluoromethoxy)benzo[d]oxazol-5-yl)methyl)proline]
3.3	–	–	–	–	36.4	151	158	–	Cc1c(-c2nc3cc(CN4CC=CC4)c(OC(F)F)cc3o2)cccc1-c1cccc(-c2nc3cc(CN4CCC[C@H]4C(=O)O)c(OC(F)F)cc3o2)c1C [Example 70, ((6-(difluoromethoxy)-2-(3′-(6-(difluoromethoxy)-5-((2,5-dihydro-1H-pyrrol-1-yl)methyl)benzo[d]oxazol-2-yl)-2,2′-dimethyl-[1,1′-biphenyl]-3-yl)benzo[d]oxazol-5-yl)methyl)-L-proline]
1.9	–	–	–	–	66.1	198	141	–	COc1nc(-c2cccc(-c3cccc(-c4nc5cc(CN6CCC[C@H]6C(=O)O)c(OC(F)F)cc5o4)c3C)c2C)ccc1CN1CC[C@@H](C)C1 [Example 272, ((6-(difluoromethoxy)-2-(3′-(6-methoxy-5-(((R)-3-methylpyrrolidin-1-yl)methyl)pyridin-2-yl)-2,2′-dimethyl-[1,1′-biphenyl]-3-yl)benzo[d]oxazol-5-yl)methyl)-L-proline]
–	–	–	–	–	522	1170	965	5 to 50	Cc1c(-c2cnc(N3CCCC3)nc2)cccc1-c1cccc(-c2nc3cc(CN4CCC[C@H]4C(=O)O)c(OC(F)F)cc3o2)c1C [Example 283, ((6-(difluoromethoxy)-2-(2,2′-dimethyl-3′-(2-(pyrrolidin-1-yl)pyrimidin-5-yl)-[1,1′-biphenyl]-3-yl)benzo[d]oxazol-5-yl)methyl)-L-proline]
–	–	–	–	–	673	736	545	0.1 to 5	Cc1c(-c2nc3cc(CN4CCC[C@H]4C(=O)O)c(OC(F)F)cc3o2)cccc1-c1cccc(-c2nc3cc(CN(C)CC#N)cc(C#N)c3o2)c1C [Example 136, ((2-(3′-(7-cyano-5-(((cyanomethyl) (methyl)amino)methyl)benzo [d]oxazol-2-yl)-2,2′-dimethyl-[1,1′-biphenyl]-3-yl)-6-(difluoromethoxy)benzo[d]oxazol-5-yl)methyl)-L-proline]
–	–	–	–	–	102	234	294	5 to 50	Cc1c(-c2ccc(CN3Cc4ccccc4C3)c(F)c2)cccc1-c1cccc(-c2nc3cc(CN4CCC[C@H]4C(=O)O)c(OC(F)F)cc3o2)c1C [Example 241, ((6-(difluoromethoxy)-2-(3″-fluoro-4″- (isoindolin-2-ylmethyl)-2,2′-dimethyl-[1,1′:3′,1″-terphenyl]-3-yl)benzo[d]oxazol-5-yl)methyl)proline]
–	–	–	–	–	131	291	238	0.1 to 5	COc1nc(-c2cccc(-c3cccc(-c4nc5cc(CN6CCC[C@H]6C(=O)O)c(OC(F)F)cc5o4)c3C)c2C)ccc1CNCC1CCC(=O)N1 (stereo partly drawn) [Example 276, ((6-(difluoromethoxy)-2-(3′-(6-methoxy-5-((((5-oxopyrrolidin-2-yl)methyl)amino)methyl)pyridin-2-yl)-2,2′-dimethyl-[1,1′-biphenyl]-3-yl)benzo[d]oxazol-5-yl)methyl)-L-proline]
–	–	–	–	–	89	271	369	5 to 50	Cc1c(-c2ccc(CN3CC[C@@H](c4ccccc4)C3)c(F)c2)cccc1-c1cccc(-c2nc3cc(CN4CCC[C@H]4C(=O)O)c(OC(F)F)cc3o2)c1C [Example 248, ((6-(difluoromethoxy)-2-(3″-fluoro-2,2′-dimethyl-4″-(((S)-3-phenylpyrrolidin-1-yl)methyl)-[1,1′:3′,1″-terphenyl]-3-yl)benzo[d]oxazol-5-yl)methyl)proline]
4.1	–	–	–	–	36.9	149	114	–	COC1CCN(Cc2ccc(-c3cccc(-c4cccc(-c5nc6cc(CN7CCC[C@H]7C(=O)O)c(OC(F)F)cc6o5)c4C)c3C)cc2)C1 (stereo partly drawn) [Example 227, ((6-(difluoromethoxy)-2-(4″-((3-methoxypyrrolidin-1-yl)methyl)-2,2′-dimethyl-[1,1′:3′,1″-terphenyl]-3-yl)benzo[d]oxazol-5-yl)methyl)-L-proline]

From patent US12187713B2, “Immunomodulators, compositions and methods thereof” (Betta Pharmaceuticals Co., Ltd, priority 2019, dated 2025)
